# Experimental data reported in US20260232767A1, “INTERLEUKIN-23 RECEPTOR ANTAGONIST PEPTIDES FOR USE IN THE TREATMENT OF PSORIASIS” (Janssen Pharmaceutica NV, priority 2023, published 2026).
# Tested on: subjects with moderate-to-severe plaque psoriasis
# Test: IGA score, Example 2
# Type: in vivo, human
# Settings: for Subjects achieving IGA Score = 0 at Week 52 / Subjects achieving IGA Score = 0 or 1 at Week 52: non-responder imputation
# Text: Described below is a multicenter, long-term extension (LTE), double-blind, dose-ranging, parallel group interventional study in participants from Example 1 to evaluate the long-term efficacy and safety of the hydrochloride salt of the compound of Formula (I) for the treatment of moderate-to-severe plaque psoriasis. Patients from Example 1 continued to receive the same dose of the compound of Formula (I) for an additional 36-week treatment period with a 4-week safety follow up period after the last administration of the compound of Formula (I). Patients randomized to placebo in Example 1 received the compound of Formula (I) at a dose of 100 mg QD starting at Week 16 of Example 1 (FIG. 21).
# Secondary endpoints included additional change from baseline of Example 1 in PASI, IGA, and PSSD at Week 52, including the proportions of subjects that achieved PAST 90, PAST 100, an IGA score of cleared (0) or minimal (1), PSSD symptoms score=0, and PSSD signs score=0.
# [1] = Placebo → 100 mg QD, crossed over at or after Week 16
smiles,measurement,setting,value
"CC(=O)NCCCC[C@@H]1NC(=O)[C@H](Cc2c[nH]c3c(C)cccc23)NC(=O)[C@H]([C@@H](C)O)NC(=O)[C@H](CC(N)=O)NC(=O)[C@@H](NC(C)=O)C(C)(C)SSC(C)(C)[C@@H](C(=O)N[C@@H](Cc2ccc(OCCN)cc2)C(=O)N[C@@H](Cc2ccc3ccccc3c2)C(=O)NC2(C(=O)N[C@@H](CCC(=O)O)C(=O)N[C@@H](CC(N)=O)C(=O)N[C@@H](Cc3cccnc3)C(=O)N(C)CC(N)=O)CCOCC2)NC1=O [IL-23 receptor antagonist peptide, Ac-[Pen]*-N-T-[W(7-Me)]-[Lys(Ac)]-[Pen]*-Phe[4-(2-aminoethoxy)]-[2-Nal]-[THP]-E-N-[3-Pal]-Sarc-NH2 (*[Pen]-[Pen]* formdisulfidebond)]",Subjects achieving IGA Score = 0 at Week 52,25 mg BID,(19.5%)
same,Subjects achieving IGA Score = 0 or 1 at Week 52,25 mg BID,(46.3%)
same,Subjects achieving IGA Score = 0 at Week 52,25 mg QD,(14.0%)
same,Subjects achieving IGA Score = 0 or 1 at Week 52,25 mg QD,(37.2%)
same,Subjects achieving IGA Score = 0 at Week 52,50 mg QD,(23.3%)
same,Subjects achieving IGA Score = 0 or 1 at Week 52,50 mg QD,(60.5%)
same,Subjects achieving IGA Score = 0 at Week 52,[1],11 (31.4%)
same,Subjects achieving IGA Score = 0 or 1 at Week 52,[1],23 (65.7%)
same,"IGA Score ≤2 (‘Mild’or better), subjects (%)","Week 1, 25 mg BID, N=41",(7.3%)
same,"IGA Score ≤2 (‘Mild’or better), subjects (%)","Week 1, 25 mg QD, N=43",(14.0%)
same,"IGA Score = 0 (‘Cleared’) or 1 (‘Minimal’), subjects (%)","Week 1, 50 mg QD, N=43",(2.3%)
same,"IGA Score ≤2 (‘Mild’or better), subjects (%)","Week 1, 50 mg QD, N=43",(16.3%)
same,"IGA Score = 0 (‘Cleared’) or 1 (‘Minimal’), subjects (%)","Week 1, 100 mg BID, N=42",(2.4%)
same,"IGA Score ≤2 (‘Mild’or better), subjects (%)","Week 1, 100 mg BID, N=42",(23.8%)
same,"IGA Score = 0 (‘Cleared’) or 1 (‘Minimal’), subjects (%)","Week 1, 100 mg QD, N=43",(4.7%)
same,"IGA Score ≤2 (‘Mild’or better), subjects (%)","Week 1, 100 mg QD, N=43",(9.3%)
same,"IGA Score = 0 (‘Cleared’) or 1 (‘Minimal’), subjects (%)","Week 2, 25 mg BID, N=41",(2.4%)
same,"IGA Score ≤2 (‘Mild’or better), subjects (%)","Week 2, 25 mg BID, N=41",(22.0%)
same,"IGA Score ≤2 (‘Mild’or better), subjects (%)","Week 2, 25 mg QD, N=43",(20.9%)
same,"IGA Score = 0 (‘Cleared’) or 1 (‘Minimal’), subjects (%)","Week 2, 50 mg QD, N=43",(7.0%)
same,"IGA Score ≤2 (‘Mild’or better), subjects (%)","Week 2, 50 mg QD, N=43",(34.9%)
same,"IGA Score = 0 (‘Cleared’) or 1 (‘Minimal’), subjects (%)","Week 2, 100 mg BID, N=42",(9.5%)
same,"IGA Score ≤2 (‘Mild’or better), subjects (%)","Week 2, 100 mg BID, N=42",(33.3%)
same,"IGA Score = 0 (‘Cleared’) or 1 (‘Minimal’), subjects (%)","Week 2, 100 mg QD, N=43",(4.7%)
same,"IGA Score ≤2 (‘Mild’or better), subjects (%)","Week 2, 100 mg QD, N=43",(34.9%)
same,"IGA Score = 0 (‘Cleared’) or 1 (‘Minimal’), subjects (%)","Week 4, 25 mg BID, N=41",(17.1%)
same,"IGA Score ≤2 (‘Mild’or better), subjects (%)","Week 4, 25 mg BID, N=41",(51.2%)
same,"IGA Score = 0 (‘Cleared’) or 1 (‘Minimal’), subjects (%)","Week 4, 25 mg QD, N=43",(9.3%)
same,"IGA Score ≤2 (‘Mild’or better), subjects (%)","Week 4, 25 mg QD, N=43",(44.2%)
same,"IGA Score = 0 (‘Cleared’) or 1 (‘Minimal’), subjects (%)","Week 4, 50 mg QD, N=43",(16.3%)
same,"IGA Score ≤2 (‘Mild’or better), subjects (%)","Week 4, 50 mg QD, N=43",(48.8%)
same,"IGA Score = 0 (‘Cleared’) or 1 (‘Minimal’), subjects (%)","Week 4, 100 mg BID, N=42",(38.1%)
same,"IGA Score ≤2 (‘Mild’or better), subjects (%)","Week 4, 100 mg BID, N=42",(69.0%)
same,"IGA Score = 0 (‘Cleared’) or 1 (‘Minimal’), subjects (%)","Week 4, 100 mg QD, N=43",(20.9%)
same,"IGA Score ≤2 (‘Mild’or better), subjects (%)","Week 4, 100 mg QD, N=43",(65.1%)
same,"IGA Score = 0 (‘Cleared’) or 1 (‘Minimal’), subjects (%)","Week 8, 25 mg BID, N=41",(26.8%)
same,"IGA Score = 0 (‘Cleared’), subjects (%)","Week 8, 25 mg BID, N=41",(4.9%)
same,"IGA Score ≤2 (‘Mild’or better), subjects (%)","Week 8, 25 mg BID, N=41",(73.2%)
same,"IGA Score = 0 (‘Cleared’) or 1 (‘Minimal’), subjects (%)","Week 8, 25 mg QD, N=43",(27.9%)
same,"IGA Score = 0 (‘Cleared’), subjects (%)","Week 8, 25 mg QD, N=43",(2.3%)
same,"IGA Score ≤2 (‘Mild’or better), subjects (%)","Week 8, 25 mg QD, N=43",(55.8%)
same,"IGA Score = 0 (‘Cleared’) or 1 (‘Minimal’), subjects (%)","Week 8, 50 mg QD, N=43",(44.2%)
same,"IGA Score = 0 (‘Cleared’), subjects (%)","Week 8, 50 mg QD, N=43",(4.7%)
same,"IGA Score ≤2 (‘Mild’or better), subjects (%)","Week 8, 50 mg QD, N=43",(74.4%)
same,"IGA Score = 0 (‘Cleared’) or 1 (‘Minimal’), subjects (%)","Week 8, 100 mg BID, N=42",(64.3%)
same,"IGA Score = 0 (‘Cleared’), subjects (%)","Week 8, 100 mg BID, N=42",(19.0%)
same,"IGA Score ≤2 (‘Mild’or better), subjects (%)","Week 8, 100 mg BID, N=42",(78.6%)
same,"IGA Score = 0 (‘Cleared’) or 1 (‘Minimal’), subjects (%)","Week 8, 100 mg QD, N=43",(46.5%)
same,"IGA Score = 0 (‘Cleared’), subjects (%)","Week 8, 100 mg QD, N=43",(9.3%)
same,"IGA Score ≤2 (‘Mild’or better), subjects (%)","Week 8, 100 mg QD, N=43",(72.1%)
same,"IGA Score = 0 (‘Cleared’) or 1 (‘Minimal’), subjects (%)","Week 12, 25 mg BID, N=41",(43.9%)
same,"IGA Score = 0 (‘Cleared’), subjects (%)","Week 12, 25 mg BID, N=41",(7.3%)
same,"IGA Score ≤2 (‘Mild’or better), subjects (%)","Week 12, 25 mg BID, N=41",(78.0%)
same,"IGA Score = 0 (‘Cleared’) or 1 (‘Minimal’), subjects (%)","Week 12, 25 mg QD, N=43",(25.6%)
same,"IGA Score = 0 (‘Cleared’), subjects (%)","Week 12, 25 mg QD, N=43",(7.0%)
same,"IGA Score ≤2 (‘Mild’or better), subjects (%)","Week 12, 25 mg QD, N=43",(72.1%)
same,"IGA Score = 0 (‘Cleared’) or 1 (‘Minimal’), subjects (%)","Week 12, 50 mg QD, N=43",(51.2%)
same,"IGA Score = 0 (‘Cleared’), subjects (%)","Week 12, 50 mg QD, N=43",(9.3%)
same,"IGA Score ≤2 (‘Mild’or better), subjects (%)","Week 12, 50 mg QD, N=43",(81.4%)
same,"IGA Score = 0 (‘Cleared’) or 1 (‘Minimal’), subjects (%)","Week 12, 100 mg BID, N=42",(66.7%)
same,"IGA Score = 0 (‘Cleared’), subjects (%)","Week 12, 100 mg BID, N=42",(40.5%)
same,"IGA Score ≤2 (‘Mild’or better), subjects (%)","Week 12, 100 mg BID, N=42",(85.7%)
same,"IGA Score = 0 (‘Cleared’) or 1 (‘Minimal’), subjects (%)","Week 12, 100 mg QD, N=43",(53.5%)
same,"IGA Score = 0 (‘Cleared’), subjects (%)","Week 12, 100 mg QD, N=43",(18.6%)
same,"IGA Score ≤2 (‘Mild’or better), subjects (%)","Week 12, 100 mg QD, N=43",(81.4%)
same,"IGA Score = 0 (‘Cleared’) or 1 (‘Minimal’), subjects (%)","Week 16, 25 mg BID, N=41",(51.2%)
same,"IGA Score = 0 (‘Cleared’), subjects (%)","Week 16, 25 mg BID, N=41",(14.6%)
same,"IGA Score ≤2 (‘Mild’or better), subjects (%)","Week 16, 25 mg BID, N=41",(73.2%)
same,"IGA Score = 0 (‘Cleared’) or 1 (‘Minimal’), subjects (%)","Week 16, 25 mg QD, N=43",(39.5%)
same,"IGA Score = 0 (‘Cleared’), subjects (%)","Week 16, 25 mg QD, N=43",(16.3%)
same,"IGA Score ≤2 (‘Mild’or better), subjects (%)","Week 16, 25 mg QD, N=43",(67.4%)
same,"IGA Score = 0 (‘Cleared’) or 1 (‘Minimal’), subjects (%)","Week 16, 50 mg QD, N=43",(58.1%)
same,"IGA Score = 0 (‘Cleared’), subjects (%)","Week 16, 50 mg QD, N=43",(34.9%)
same,"IGA Score ≤2 (‘Mild’or better), subjects (%)","Week 16, 50 mg QD, N=43",(81.4%)
same,"IGA Score = 0 (‘Cleared’) or 1 (‘Minimal’), subjects (%)","Week 16, 100 mg BID, N=42",(64.3%)
same,"IGA Score = 0 (‘Cleared’), subjects (%)","Week 16, 100 mg BID, N=42",(45.2%)
same,"IGA Score ≤2 (‘Mild’or better), subjects (%)","Week 16, 100 mg BID, N=42",(81.0%)
same,"IGA Score = 0 (‘Cleared’) or 1 (‘Minimal’), subjects (%)","Week 16, 100 mg QD, N=43",(62.8%)
same,"IGA Score = 0 (‘Cleared’), subjects (%)","Week 16, 100 mg QD, N=43",(27.9%)
same,"IGA Score ≤2 (‘Mild’or better), subjects (%)","Week 16, 100 mg QD, N=43",(79.1%)
same,"IGA Score = 0 (‘Cleared’) or 1 (‘Minimal’), subjects (%)","Week 20, 25 mg BID, N=41",(48.8%)
same,"IGA Score = 0 (‘Cleared’), subjects (%)","Week 20, 25 mg BID, N=41",(19.5%)
same,"IGA Score ≤2 (‘Mild’or better), subjects (%)","Week 20, 25 mg BID, N=41",(75.6%)
same,"IGA Score = 0 (‘Cleared’) or 1 (‘Minimal’), subjects (%)","Week 20, 25 mg QD, N=43",(44.2%)
same,"IGA Score = 0 (‘Cleared’), subjects (%)","Week 20, 25 mg QD, N=43",(14.0%)
same,"IGA Score ≤2 (‘Mild’or better), subjects (%)","Week 20, 25 mg QD, N=43",(65.1%)
same,"IGA Score = 0 (‘Cleared’) or 1 (‘Minimal’), subjects (%)","Week 20, 50 mg QD, N=43",(55.8%)
same,"IGA Score = 0 (‘Cleared’), subjects (%)","Week 20, 50 mg QD, N=43",(20.9%)
same,"IGA Score ≤2 (‘Mild’or better), subjects (%)","Week 20, 50 mg QD, N=43",(81.4%)
same,"IGA Score = 0 (‘Cleared’) or 1 (‘Minimal’), subjects (%)","Week 20, 100 mg BID, N=42",(61.9%)
same,"IGA Score = 0 (‘Cleared’), subjects (%)","Week 20, 100 mg BID, N=42",(42.9%)
same,"IGA Score ≤2 (‘Mild’or better), subjects (%)","Week 20, 100 mg BID, N=42",(81.0%)
same,"IGA Score = 0 (‘Cleared’) or 1 (‘Minimal’), subjects (%)","Week 20, 100 mg QD, N=43",(58.1%)
same,"IGA Score = 0 (‘Cleared’), subjects (%)","Week 20, 100 mg QD, N=43",(16.3%)
